Activity calls are given as the source filed them. No cut-off for these calls is given here.

The values that follow come from ChEMBL document CHEMBL4823252 (J Med Chem, 2021).

In one data set the test system is MV4-11. In words: Induction of cell cycle arrest in human MV4-11 cells assessed as accumulation at sub-G1 phase at 1 nM incubated for 24 hrs by flow cytometry (reference value: […]%). In kind it is functional. A general note: Flow cytometry measures light scatter and fluorescence of single cells or particles in a stream.
Data set [1] in a line: Toxicity in mouse xenografted with human MV4-11 cells assessed as effect on spleen at 2.5 to 10 mg/kg, po administered for 16 days by hematoxylin and eosin staining assay. The class given is organism-based. The settings on record: in vivo, 384 h, dose 2.5-10 mg/kg, time 16 day.
The test system of the next data set is Mus musculus. In words: Induction of tumor recurrence mouse xenografted with human MOLM-13 cells at 10 to 40 mg/kg, po. In kind it is functional, organism-based. Conditions: dose 10-40 mg/kg.
Data set [2] concerns MOLM-13. Briefly: Antitumor activity against human MOLM-13 cells xenografted in po dosed mouse assessed as tumor growth inhibition administered for 20 days measured once every 2 days. The class given is functional, organism-based. The settings on record: time 20.0 day.
Data set [3] concerns MOLM-13. In words: Induction of apoptosis in human MOLM-13 cells assessed as early apoptotic cells at 1 nM incubated for 24 hrs by flow cytometry (reference value: 2.18%). The class given is functional.
For another data set, the species on record is Homo sapiens. Briefly: Binding affinity to FLT3 ITD D835V mutant (unknown origin) at 1000 nM relative to control.
The nature of data set [4]: Tmax in Sprague-Dawley rat at 10 mg/kg, po. The class given is ADME, organism-based. The settings on record: in vivo.
The target in data set [5] is Receptor-type tyrosine-protein kinase FLT3 (Homo sapiens) (UniProt P36888). Briefly: Inhibition of FLT3 in human MV4-11 cells assessed as suppression of autophosphorylation at tyr589/591 residue at 10 uM incubated for 2 hrs by Western blot analysis. In kind it is cell-based. Set-up: scale not given: the % may be the effect or the level left. (In general: In western blotting, separated proteins are transferred to a membrane and probed.)

Data set [6] can be described thus: Toxicity in mouse xenografted with human MOLM-13 cells assessed as effect on kidney at 10 to 40 mg/kg, po administered for 20 days by hematoxylin and eosin staining assay. Conditions: in vivo, 480 h, dose 10-40 mg/kg, time 20 day. In kind it is organism-based. For orientation: Xenograft models place foreign cells or tissue in a host animal.
The target in data set [7] is Receptor-type tyrosine-protein kinase FLT3 (Homo sapiens) (UniProt P36888). Briefly: Inhibition of FLT3 in human MV4-11 cells assessed as reduction in ERK phosphorylation at 10 uM incubated for 2 hrs by Western blot analysis. In kind it is cell-based.
The subject of data set [8] is Receptor-type tyrosine-protein kinase FLT3 (Homo sapiens), P36888 [UNDEFINED MUTATION]. Briefly: Binding affinity to FLT3 ITD mutant (unknown origin) at 1000 nM relative to control.
In data set [9] the test system is Receptor-type tyrosine-protein kinase FLT3 (Homo sapiens), P36888 [R834Q]. Briefly: Binding affinity to FLT3 R834Q mutant (unknown origin) at 1000 nM relative to control.
Data set [10] addresses T1, Receptor-type tyrosine-protein kinase FLT3 (Homo sapiens, UniProt P36888).
T1 sequence (P36888 whole entry): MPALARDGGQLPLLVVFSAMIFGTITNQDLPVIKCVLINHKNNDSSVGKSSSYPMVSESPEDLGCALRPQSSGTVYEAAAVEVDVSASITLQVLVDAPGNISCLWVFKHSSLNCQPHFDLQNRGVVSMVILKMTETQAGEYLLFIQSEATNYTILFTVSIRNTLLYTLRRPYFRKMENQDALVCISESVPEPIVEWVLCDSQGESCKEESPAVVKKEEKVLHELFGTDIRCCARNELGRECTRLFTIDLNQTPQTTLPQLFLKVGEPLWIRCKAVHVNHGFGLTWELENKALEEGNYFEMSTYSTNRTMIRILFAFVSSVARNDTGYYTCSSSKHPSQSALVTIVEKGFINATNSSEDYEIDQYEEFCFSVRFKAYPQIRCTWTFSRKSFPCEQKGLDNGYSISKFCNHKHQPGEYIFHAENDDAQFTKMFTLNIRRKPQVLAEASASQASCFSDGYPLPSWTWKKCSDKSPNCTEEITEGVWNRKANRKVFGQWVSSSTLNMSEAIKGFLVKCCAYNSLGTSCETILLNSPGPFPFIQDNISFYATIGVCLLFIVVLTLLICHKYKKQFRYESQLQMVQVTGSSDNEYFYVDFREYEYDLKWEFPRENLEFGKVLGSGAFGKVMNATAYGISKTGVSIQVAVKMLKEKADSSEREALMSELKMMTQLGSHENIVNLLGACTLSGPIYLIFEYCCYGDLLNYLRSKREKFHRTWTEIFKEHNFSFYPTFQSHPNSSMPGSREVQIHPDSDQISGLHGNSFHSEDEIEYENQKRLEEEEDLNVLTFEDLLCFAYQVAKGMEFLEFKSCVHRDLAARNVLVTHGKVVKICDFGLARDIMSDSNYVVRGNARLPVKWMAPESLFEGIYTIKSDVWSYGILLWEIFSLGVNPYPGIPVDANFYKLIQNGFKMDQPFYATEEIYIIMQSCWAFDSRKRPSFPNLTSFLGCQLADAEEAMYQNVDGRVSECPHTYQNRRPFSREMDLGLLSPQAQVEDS
In words: Inhibition of FLT3 (unknown origin) incubated for 30 mins in presence of ATP by mobility shift assay.

The test system of data set [11] is MOLM-13. In words: Antiproliferative activity against human sunitinib-resistant MOLM-13 cells at 12 nM incubated for 72 hrs by CCK8 assay relative to control. In kind it is functional.
For data set [12], the system named is Receptor-type tyrosine-protein kinase FLT3 (Homo sapiens), P36888 [D835Y]. In words: Binding affinity to FLT3 D835Y mutant (unknown origin) at 1000 nM relative to control.

As a reminder, the Tmax is the time at which the peak concentration occurs. A word on the IC50: it is the concentration that gives 50% inhibition. For `Cc1c(NC(=O)CCN2CCCC2)c[nH]c1/C=C1\C(=O)Nc2ccc(F)cc21`, the Activity with MV4-11 is 13.92%; in [1], “Non-Toxic”; in the data set with MOLM-13 [2], “Dose-Dependent Effect”; in the data set with MOLM-13 [3] it was 3.69%; in [5] it was 100%; in data set [6], “Non-Toxic”. Further, the Activity in the data set on MOLM-13 [11] was -2.6%. Also, the outcome in the data set on Mus musculus was inactive. For the same molecule, the outcome (in the data set filed under Homo sapiens; in data set [7]; in data set [8]; in data set [9]; in data set [12]) was Active. The Tmax in data set [4] amounted to 2.7 h. In addition, the IC50 in data set [10] turned out to be 1.8 nM.
